Assay results reported in US11980607B2, “Methods of treating malignant lymphoproliferative disorders” (Actuate Therapeutics Inc., priority 2018, dated 2024).

How the values were obtained:
[1] = test system: SUDHL-4 cell line; experiment: Dose response of combinations (MTS viability, day 3); assay type: cell-based; details: SUDHL-4, combined with 0.5 μM 9-ING-41, day 3 MTS
Protocol: (§1) FIGS. 2A-2O show the viability of lymphoma cells with chemotherapy agents in combination with 9-ING-41. 10,000 cells (FIGS. 1A, F, K: Daudi; FIGS. 1B, G, L: SUDHL-4; FIGS. 1C, H, M: KPUM-UH1; FIGS. 1D, I, N: Karpas 422; E, J, O: TMD8) were plated per well of a 96-well plate and treated with a dose response series of both 9-ING-41 (0-0.5 μM) and Venetoclax (0-5,000 nM) (FIGS. 1A-E) or BAY-1143572 (0-50 μM) (FIGS. 1F-J) or Idelalisib (0-50 μM) (FIGS. 1K-O) in triplicate. Viability after 3 days was analyzed using the MTS assay. Briefly, 20 μl of MTS reagent was added to cells and incubated for 2 hours and, the absorbance at 490 nm was read using a Biotek plate reader. Relative absorbance is calculated after setting the average absorbance of the no-treatment control as 1. Absorbance at OD=490 nm increases proportionally to cell density.
(§2) Daudi, SUDHL-4, KPUM-UH1, Karpas 422, or TMD8 cells were treated simultaneously with a series of concentrations of 9-ING-41 (0 μM, 0.05 μM, 0.5 μM) and either Venetoclax (0 nM, 0.5 nM, 5 nM, 50 nM, 500 nM, 5000 nM), BAY-1143572 (0 μM, 0.005 μM, 0.05 μM, 0.5 μM, 5 μM, 50 μM), or Idelalisib (0 μM, 0.005 μM, 0.05 μM, 0.5 μM, 5 μM, 50 μM). Viability at day 3 using an MTS assay was determined as described above. The background absorbance was subtracted from the A490 of the samples and the A490 of the vehicle/no-treatment control was set to 1, and the relative A490s of the rest of the samples were calculated. The IC50 was calculated as the concentration of the drug at which A490 reached 0.5. Additive effects were calculated as a fold change in the IC50 of a novel agent when combined with 0.5 μM of 9-ING-41.

[2] = test system: KPUMUH1 cell line; experiment: as above; assay type: cell-based; details: KPUMUH1, combined with 0.5 μM 9-ING-41, day 3 MTS
Protocol: as §1, §2

Row | SMILES | Reduction in the IC50 value on combination with 9-ING-41 [1] | Reduction in the IC50 value on combination with 9-ING-41 [2]
1 | COc1cc(F)ccc1-c1ncnc(Nc2cccc(C[S@](C)(=N)=O)c2)n1 [BAY-1143572] | 8 fold | –
2 | CC1(C)CCC(CN2CCN(c3ccc(C(=O)NS(=O)(=O)c4ccc(NCC5CCOCC5)c([N+](=O)[O-])c4)c(Oc4cnc5[nH]ccc5c4)c3)CC2)=C(c2ccc(Cl)cc2)C1 [Venetoclax] | 8 fold | 2 fold
